Data reported in patent US20030199578A1, “Naphthalene amides as potassium channel openers” (priority 2002, published 2003).

Key:
[1] = test system: Landrace pig bladder strips; experiment: In vitro functional model: field-stimulated bladder tissue strips; conditions: dose dependent, concentration range 10^−9 to 10^−5 M, control agonist
Protocol: Compounds were evaluated for functional potassium channel opening activity using tissue strips obtained from Landrace pig bladders. Landrace pig bladders were obtained from female Landrace pigs of 9-30 kg. Landrace pigs were euthanized with an intraperitoneal injection of pentobarbital solution, Somlethal®, J. A. Webster Inc., Sterling Mass. The entire bladder was removed and immediately placed into Krebs Ringer bicarbonate solution (composition, mM: NaCl, 120; NaHCO3, 20; dextrose, 11; KCl, 4.7; CaCl2, 2.5; MgSO4, 1.5; KH2PO4, 1.2; K2EDTA, 0.01, equilibrated with 5% CO2/95% O2 pH 7.4 at 37° C.). Propranolol (0.004 mM) was included in all of the assays to block β-adrenoceptors. The trigonal and dome portions were discarded. Strips 3-5 mm wide and 20 mm long were prepared from the remaining tissue cut in a circular fashion. The mucosal layer was removed. One end was fixed to a stationary glass rod and the other to a Grass FT03 transducer at a basal preload of 1.0 gram. Two parallel platinum electrodes were included in the stationary glass rod to provide field stimulation of 0.05 Hz, 0.5 milli-seconds at 20 volts. […] The maximal efficacy of each compound (expressed as % relative to P1075) is reported. […] Agonist potencies were also expressed as an index relative to P1075. The index was calculated by dividing the ED50 for P1075 by the ED50 for the test agonist in a given tissue. […]

melting point	SMILES	effect on stimulated twitch of bladder strips [1]
	CCC(C)(C)N=C(NC#N)Nc1cccnc1 [Example P1075]	completely eliminated the stimulated twitch
161 to 162 °C	CC(=O)Nc1c(C(O)(C(F)(F)F)C(F)(F)F)cc(Cl)c2ccccc12 [Example 9, N-[4-Chloro-2-(2,2,2-trifluoro-1-hydroxy-1-trifluoromethyl-ethyl)-naphthalen-1-yl]-acetamide]	
162 to 164 °C	O=C(Nc1c(C(O)(C(F)(F)F)C(F)(F)F)ccc2ccccc12)c1ccno1 [Example 41, Isoxazole-5-carboxylic acid [2-(2,2,2-trifluoro-1-hydroxy-1-trifluoromethyl-ethyl)-naphthalen-1-yl]-amide]	
